Experimental findings from US9745299B2, “Substituted tricyclic benzimidazoles as kinase inhibitors” (SELVITA SA, priority 2012, dated 2017) are described below.

What is called IC50 is the concentration needed to halve the response being measured.

One data set concerns SK-MEL5 melanoma. Put plainly: Cytotoxic effects, SK-MEL5. It counts as cell-based, human.
A further data set has as its target T1, CDK9/CyclinT (Homo sapiens, UniProt P50750).
T1 construct: purchased Proqinase, Freiburg, Germany
Put plainly: ADP-Glo Kinase Assay, CDK9/CyclinT. Also: ATP at apparent Km (26 µM). Conditions: read-out: % inhibition at 1 μM CDK9/CyclinT. It counts as biochemical. The method, boiled down: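 ADP-Glo luminescent ADP detection measured kinase activity: remaining ATP depleted, ADP converted to ATP for luciferase read-out.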
On the technique in general: ADP-Glo first removes unused ATP, then detects ADP through luciferase.

In a further data set the target is T2, CDK5/p25 (Homo sapiens, UniProt Q00535).
T2 construct: purchased Millipore, Billerica, Mass., USA
T2 sequence (Q00535 whole entry): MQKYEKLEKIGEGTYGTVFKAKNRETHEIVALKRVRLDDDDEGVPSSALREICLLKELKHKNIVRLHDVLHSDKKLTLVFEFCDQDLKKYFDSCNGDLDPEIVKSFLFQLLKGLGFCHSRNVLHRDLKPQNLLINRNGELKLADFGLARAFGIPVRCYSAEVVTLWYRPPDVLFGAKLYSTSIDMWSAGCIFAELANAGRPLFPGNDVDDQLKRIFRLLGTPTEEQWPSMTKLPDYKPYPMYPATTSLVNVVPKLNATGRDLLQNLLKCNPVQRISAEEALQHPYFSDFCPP
T2 sequence (Q15078 99-307 partner limits assumed): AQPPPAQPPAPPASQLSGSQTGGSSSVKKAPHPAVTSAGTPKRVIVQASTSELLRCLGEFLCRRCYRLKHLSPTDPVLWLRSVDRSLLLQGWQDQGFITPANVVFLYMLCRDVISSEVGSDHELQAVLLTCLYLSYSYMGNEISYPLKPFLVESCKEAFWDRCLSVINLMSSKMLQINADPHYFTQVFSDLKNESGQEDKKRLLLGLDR
Put plainly: ADP-Glo Kinase Assay, CDK5/p25. Also: ATP at apparent Km (12 µM). It counts as biochemical. The note with it: read-out: % inhibition at 1 μM CDK5/p25. As for the experimental part:
Testing of the compounds described in this invention was carried out using the ADP-Glo™ Kinase Assay from Promega Corporation (Madison, Wis., USA).
The ADP-Glo™ Kinase Assay is a luminescent ADP detection assay to measure kinase activity by quantifying the amount of ADP produced during a kinase reaction. The kinase assay is performed in kinase assay buffer (5 mM MOPS, pH 7.5, 5 mM MgCl2, 0.4 mM EDTA, 1.5 mM DTT). Test samples initially dissolved in DMSO at 10 mM were diluted with the assay buffer to 1000 nM. A 30 μL volume/well of a mixture of substrates containing ATP (final ATP concentration in each kinase assay was equal to its apparent ATP Km).
The assay was performed in two steps: first, after the kinase reaction, an equal volume of ADP-Glo™ Reagent was added to terminate the kinase reaction and deplete the remaining ATP. Second, the Kinase Detection Reagent was added to simultaneously convert ADP to ATP and allowed the newly synthesized ATP to be measured using a luciferase/luciferin reaction. The luminescent signal generated was proportional to the ADP concentration produced and was correlated with kinase activity.

For a further data set, the system named is HCT116 tumor. Briefly: HCT116 xenograft tumor growth in NOD/SCID mice. In kind it is in vivo. Conditions: oral administration, 30 mg/kg. How it is done: The substituted Tricyclic Benzimidazoles of the present invention are useful as anti-cancer agents due to their ability to reduce tumor growth in vivo in mammals. Various well-accepted animal models exist for cancer. By way of example, antitumor activity can be evaluated in vivo in murine xenograft models. Briefly, female mice, NOD/SCID, 5-6 weeks old, were used for the study. On the 1st experimental day, 5*10^6 HCT116 cells were suspended in 0.1 ml 0.9% NaCl+Matrigel® (BD Biosciences) (1:1, v:v) and were injected subcutaneously, on the right side just above the groin. As the tumor growth was progressing, the tumor size was measured every day, and the tumor volume was computed from the formula: TV=(a*a*b)/2 in mm3, where a is the short axis in mm, and b is the long axis in mm. When the average tumor volume reached and exceeded 100 mm3, mice were randomized into uniform groups and subjected to the compound administrations. The administration of the compound was performed and continued according to the experimental schedule.
The tumor volume was monitored throughout the study and the tumor growth inhibition (TGI) was computed using the following formula: TGI [%]=((Av Norm TGC−Av Norm TGT)/Av Norm TGC)×100, where Av Norm TGC is the mean (average) normalized tumor growth of the control group, and Av Norm TGT is the mean (average) normalized tumor growth of the treated group. […]

The test system of the next data set is HCT116 cells. Put plainly: MTS viability assay, HCT116. It counts as cell-based. Conditions: Homo sapiens, HCT-116, HCT116, 72 hour incubation, read-out: IC50 [μM] HCT116 ED50. In short, it runs like this:
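Colon cancer lines, 10,000-20,000 cells/well in DMEM with 10% FBS, were treated with serially diluted compound for 72 h at 37 °C, 5% CO2. Viability came from MTS tetrazolium reduction after 2 h further incubation, read as absorbance at 490 nm.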

The next data set has as its system IL6. Put plainly: LPS assay, IL-6 ELISA in RAW 264.7. In kind it is cell-based, mouse. The note with it: RAW 264.7, 4 h pre-incubation, LPS 1 μg/ml for 6 h. The source says: The LPS assay was used to evaluate ability to respond to an inflammatory stimulus by mounting an acute phase response. The acute phase response is characterized by a dramatic increase in the production of a group of proteins by the liver. Bacterial LPS is an endotoxin, a potent inducer of the acute phase response and systemic inflammation. This response is induced by the production of TNFα, IL-1β, and IL-6 from activated monocytes and neutrophils in response to inflammatory stimuli. Evaluation of the three pro-inflammatory cytokines, TNFα, IL-1β, and IL-6, is the current standard method for evaluation of the ability of the immune system to mount an innate inflammatory immune response. In each case, and by methods known to those practiced in the art, RAW 264.7 Mouse leukaemic monocyte macrophage cells were plated at the density of 40 000 cells per well. Next day, cells were pre-incubated with tested compounds (fconc=10 μM) for 4 h and then stimulated with LPS (fconc=1 μg/ml) for 6 h. In the cell culture media IL-6 and TNFα levels were examined by ELISA using BD OptEIA™ Mouse IL-6 ELISA Set Cat. No 555240 and BD OptEIA™ Mouse TNFα ELISA Set Cat. No 555268 (BD Biosciences Pharmingen, SanDiego, Calif., USA), according to manufacturer's instructions.
(In general: In an ELISA, binding on a coated surface is turned into a signal by an enzyme label.)

Structures can show the parent of a compound that is named as a salt.

T1 sequence (P50750 whole entry): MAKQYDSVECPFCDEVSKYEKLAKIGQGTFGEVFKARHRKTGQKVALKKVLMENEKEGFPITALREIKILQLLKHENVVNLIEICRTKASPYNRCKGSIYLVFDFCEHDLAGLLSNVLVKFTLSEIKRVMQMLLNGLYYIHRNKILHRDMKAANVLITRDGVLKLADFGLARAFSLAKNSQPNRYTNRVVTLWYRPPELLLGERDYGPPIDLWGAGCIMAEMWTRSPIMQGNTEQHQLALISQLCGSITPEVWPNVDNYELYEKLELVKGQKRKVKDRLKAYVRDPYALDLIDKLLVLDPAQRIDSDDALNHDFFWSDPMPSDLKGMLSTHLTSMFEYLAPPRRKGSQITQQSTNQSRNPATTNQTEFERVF
T1 sequence (O60563 whole entry partner): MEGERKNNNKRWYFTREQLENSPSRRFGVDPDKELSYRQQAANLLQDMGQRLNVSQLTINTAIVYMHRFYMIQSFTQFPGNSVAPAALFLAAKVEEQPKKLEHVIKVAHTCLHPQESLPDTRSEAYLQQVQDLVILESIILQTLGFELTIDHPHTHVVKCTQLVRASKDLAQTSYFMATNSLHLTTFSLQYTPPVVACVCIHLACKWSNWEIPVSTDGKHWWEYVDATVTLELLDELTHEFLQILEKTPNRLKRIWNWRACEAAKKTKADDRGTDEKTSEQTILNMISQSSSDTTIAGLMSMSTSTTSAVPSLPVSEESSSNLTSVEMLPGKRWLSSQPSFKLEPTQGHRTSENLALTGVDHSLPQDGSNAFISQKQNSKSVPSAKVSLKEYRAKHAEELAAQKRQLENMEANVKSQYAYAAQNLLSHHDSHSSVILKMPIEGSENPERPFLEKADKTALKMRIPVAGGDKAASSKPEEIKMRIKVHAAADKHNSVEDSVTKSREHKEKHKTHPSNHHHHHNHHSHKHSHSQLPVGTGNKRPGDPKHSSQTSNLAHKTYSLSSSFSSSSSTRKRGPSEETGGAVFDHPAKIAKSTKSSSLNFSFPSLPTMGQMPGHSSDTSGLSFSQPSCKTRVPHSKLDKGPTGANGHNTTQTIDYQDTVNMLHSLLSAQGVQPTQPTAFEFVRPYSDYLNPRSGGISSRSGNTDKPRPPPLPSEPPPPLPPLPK

Turning to `Cc1c(Br)c(Br)c2c3c1nc(N1CCNCC1)n3CCC2` [Example 1K], the cytotoxic effects result in the data set with SK-MEL5 melanoma is on record as “showed cytotoxic effects”. The figures for the inhibition at 1 µM on CDK9/CyclinT and at CDK5/p25 were 3% and 13%, respectively. Besides, in the data set on HCT116 tumor, the “HCT116 tumor growth (FIG. 1)” value is “Inhibition of HCT116 tumor growth”. Further, the IC50 in the data set with HCT116 cells is 0.7 µM.
In the case of `Brc1c(Br)c2c3c(nc(N4CCNCC4)n3CCC2)c1Br` [Example 6, 7,8,9-tribromo-2-(piperazin-1-yl)-5,6-dihydro-4H-imidazo[4,5,1-ij]quinoline maleate], in the data set on SK-MEL5 melanoma, the cytotoxic effects result is reported as “showed cytotoxic effects”. The inhibition at 1 µM at CDK9/CyclinT is 55%; at CDK5/p25 it was 39%. In addition, the “LPS-induced IL6 production (FIG. 3)” value with IL6 is recorded as “dose dependent reduction”. The “HCT116 tumor growth (FIG. 1)” value in the data set with HCT116 tumor is given as “Inhibition of HCT116 tumor growth”. Besides, the IC50 in the data set with HCT116 cells is 0.4 µM.
